From patent US20020137929A1, “1 - (3-heterocyclylphenyl) isothiourea, -isourea, -guanidine and -amidine herbicidal agents” (Intellectual Property Department, BASF Aktiengesellschaft, priority 1998, published 2002)

Key:
CYPSE (Flatsedge) [1] = assay: Postemergence weed control under flooded paddy conditions; assay type: in vivo, Cyperus serotinus; details: postemergence weeds, 3-4 weeks after treatment
Method in brief: (§1)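 Flood-water application, about 0.0313–0.500 kg/ha a.i. in aqueous/acetone 50/50 v/v; water depth 1.5–3 cm throughout. Weeds 3–5 cm, rice 1.5–2.5 leaf. Greenhouse; 0–9 visual rating vs control at 3–4 wk.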

[2] = test system: TRZAWR (Wheat, Winter, cv Riband); assay: Preemergence herbicidal evaluation; assay type: in vivo, Triticum aestivum; details: rated 4-5 weeks after treatment
Method in brief: (§2)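 Steps: mix seeds into potting soil; plant atop ~1 inch soil; spray compound in aqueous acetone (~0.0156-0.500 kg/ha equivalent); maintain in greenhouse with watering; rate visually 0-9 versus control at 4-5 weeks.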

ZEAMX (Corn, Field) [3] = assay: Postemergence herbicidal evaluation; assay type: in vivo, Zea mays
Method in brief: (§3)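 Each compound, dispersed in an acetone/water mix (50/50) carrying 0.5% TWEEN 20, is nozzle-sprayed at 40 psi on approximately two-week-old seedlings at about 0.0156–0.500 kg/ha. Plants are assessed 4–5 weeks afterward on a 0–9 scale relative to control; duplicate tests are averaged.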

ORYSAT (Rice, Tebonnet) = assay: Postemergence herbicidal evaluation; assay type: in vivo, Oryza sativa, (L.) Tebonnet
Method in brief: as §3

SETVI (Foxtail, Green) [4] = assay: Preemergence herbicidal evaluation; assay type: in vivo, Setaria viridis; details: rated 4-5 weeks after treatment
Method in brief: as §2

[5] = test system: SAGPY (Arrowhead (Pygmaea)); assay: Postemergence weed control under flooded paddy conditions; assay type: in vivo, Sagittaria pygmaea; details: postemergence weeds, 3-4 weeks after treatment
Method in brief: as §1

CYPSE (Flatsedge) [6] = assay: Preemergence weed control under flooded paddy conditions; assay type: in vivo, Cyperus serotinus; details: rated 3-4 weeks after treatment
Method in brief: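 Silt loam, seeds in top 0.5 cm; flood held 1.5-3 cm; test cpd as acetone/water 50/50 into flood water, ~0.0313-0.500 kg/ha a.i.; greenhouse 3-4 wk; visual 0-9 score vs control.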

SETVI (Foxtail, Green) [7] = assay: Postemergence herbicidal evaluation; assay type: in vivo, Setaria viridis
Method in brief: as §3

CYPIR (Rice Flatsedge) [8] = assay: Preemergence weed control under flooded paddy conditions; assay type: in vivo, Cyperus iria; details: rated 3-4 weeks after treatment
Method in brief: (§4)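 Herbicidal effect is scored visually on a 0-9 scale against an untreated control, three to four weeks after compounds are pipetted into the flood water (1.5 to 3 cm deep) over seeds planted in silt loam at 0.5 cm depth. Rates: about 0.0313 to 0.500 kg/ha.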

[9] = test system: ECHORC (Watergrass (Calif.)); assay: as above; assay type: in vivo, Echinochloa oryzoides; details: rated 3-4 weeks after treatment
Method in brief: as §4

ZEAMX (Corn, Field) [10] = assay: Preemergence herbicidal evaluation; assay type: in vivo, Zea mays; details: rated 4-5 weeks after treatment
Method in brief: as §2

CYPIR (Rice Flatsedge) [11] = assay: Postemergence weed control under flooded paddy conditions; assay type: in vivo, Cyperus iria; details: postemergence weeds, 3-4 weeks after treatment
Method in brief: as §1

[12] = test system: ECHORC (Watergrass (Calif.)); assay: as above; assay type: in vivo, Echinochloa oryzoides; details: postemergence weeds, 3-4 weeks after treatment
Method in brief: as §1

ECHCG (Barnyardgrass) = assay: Preemergence herbicidal evaluation; assay type: in vivo, Echinochloa crus-galli; details: rated 4-5 weeks after treatment
Method in brief: as §2

## CCOP(=O)(CN1C(=O)CSC1=Nc1cc(-n2c(=O)cc(C(F)(F)F)n(C)c2=O)c(F)cc1Cl)OCC [Compound 35, Diethyl {{2-{{2-chloro-5-[3,6-dihydro-3-methyl-2,6-dioxo-4-(trifluoromethyl)-1(2H)-pyrimidinyl]-4-fluorophenyl}imino}-4-oxo-3-thiazolidinyl}methyl}phosphonate]
CYPSE (Flatsedge) [1]; rate 0.1250 kg/ha
  Herbicidal rating CYPSE: 0.0
CYPSE (Flatsedge) [1]; rate 0.2500 kg/ha
  Herbicidal rating CYPSE: 0.0
[2]; rate 0.0625 kg/ha
  Preemergence herbicidal rating TRZAWR: 0.0
[2]; rate 0.1250 kg/ha
  Preemergence herbicidal rating TRZAWR: 1.0
[2]; rate 0.2500 kg/ha
  Preemergence herbicidal rating TRZAWR: 3.0
ZEAMX (Corn, Field) [3]; Rate 0.0158 kg/ha
  Postemergence herbicidal rating ZEAMX: 3.5
ZEAMX (Corn, Field) [3]; Rate 0.0315 kg/ha
  Postemergence herbicidal rating ZEAMX: 3.5
ZEAMX (Corn, Field) [3]; Rate 0.0630 kg/ha
  Postemergence herbicidal rating ZEAMX: 4.5
ORYSAT (Rice, Tebonnet); Rate 0.0158 kg/ha
  Postemergence herbicidal rating ORYSAT: 2.0
ORYSAT (Rice, Tebonnet); Rate 0.0315 kg/ha
  Postemergence herbicidal rating ORYSAT: 3.0
ORYSAT (Rice, Tebonnet); Rate 0.0630 kg/ha
  Postemergence herbicidal rating ORYSAT: 3.5
SETVI (Foxtail, Green) [4]; rate 0.0625 kg/ha
  Preemergence herbicidal rating SETVI: 0.0
SETVI (Foxtail, Green) [4]; rate 0.1250 kg/ha
  Preemergence herbicidal rating SETVI: 0.0
SETVI (Foxtail, Green) [4]; rate 0.2500 kg/ha
  Preemergence herbicidal rating SETVI: 9.0
[5]; rate 0.1250 kg/ha
  Herbicidal rating SAGPY: 0.0
[5]; rate 0.2500 kg/ha
  Herbicidal rating SAGPY: 3.0
CYPSE (Flatsedge) [6]; 0.1250 kg/ha
  Herbicidal rating CYPSE: 0.0
CYPSE (Flatsedge) [6]; 0.2500 kg/ha
  Herbicidal rating CYPSE: 0.0
SETVI (Foxtail, Green) [7]; Rate 0.0158 kg/ha
  Postemergence herbicidal rating SETVI: 0.0
SETVI (Foxtail, Green) [7]; Rate 0.0315 kg/ha
  Postemergence herbicidal rating SETVI: 2.0
SETVI (Foxtail, Green) [7]; Rate 0.0630 kg/ha
  Postemergence herbicidal rating SETVI: 4.0
CYPIR (Rice Flatsedge) [8]; 0.1250 kg/ha
  Herbicidal rating CYPIR: 0.0
CYPIR (Rice Flatsedge) [8]; 0.2500 kg/ha
  Herbicidal rating CYPIR: 0.0
[9]; 0.1250 kg/ha
  Herbicidal rating ECHORC: 3.0
[9]; 0.2500 kg/ha
  Herbicidal rating ECHORC: 6.0
ZEAMX (Corn, Field) [10]; rate 0.0625 kg/ha
  Preemergence herbicidal rating ZEAMX: 0.0
ZEAMX (Corn, Field) [10]; rate 0.1250 kg/ha
  Preemergence herbicidal rating ZEAMX: 0.0
ZEAMX (Corn, Field) [10]; rate 0.2500 kg/ha
  Preemergence herbicidal rating ZEAMX: 0.0
CYPIR (Rice Flatsedge) [11]; rate 0.1250 kg/ha
  Herbicidal rating CYPIR: 0.0
CYPIR (Rice Flatsedge) [11]; rate 0.2500 kg/ha
  Herbicidal rating CYPIR: 0.0
[12]; rate 0.1250 kg/ha
  Herbicidal rating ECHORC: 3.0
[12]; rate 0.2500 kg/ha
  Herbicidal rating ECHORC: 6.0
ECHCG (Barnyardgrass); rate 0.0625 kg/ha
  Preemergence herbicidal rating ECHCG: 0.0
ECHCG (Barnyardgrass); rate 0.1250 kg/ha
  Preemergence herbicidal rating ECHCG: 0.0
ECHCG (Barnyardgrass); rate 0.2500 kg/ha
  Preemergence herbicidal rating ECHCG: 0.0

## CCOC(=O)CN1CCSC1=Nc1cc(-n2nc(C)n(C(F)F)c2=O)c(F)cc1Cl [Compound 36]
CYPSE (Flatsedge) [1]; rate 0.0313 kg/ha
  Herbicidal rating CYPSE: 0.0
CYPSE (Flatsedge) [1]; rate 0.0625 kg/ha
  Herbicidal rating CYPSE: 0.0
CYPSE (Flatsedge) [1]; rate 0.1250 kg/ha
  Herbicidal rating CYPSE: 2.0
CYPSE (Flatsedge) [1]; rate 0.2500 kg/ha
  Herbicidal rating CYPSE: 4.0
[2]; rate 0.0625 kg/ha
  Preemergence herbicidal rating TRZAWR: 0.0
[2]; rate 0.1250 kg/ha
  Preemergence herbicidal rating TRZAWR: 1.0
[2]; rate 0.2500 kg/ha
  Preemergence herbicidal rating TRZAWR: 0.0
ZEAMX (Corn, Field) [3]; Rate 0.0158 kg/ha
  Postemergence herbicidal rating ZEAMX: 4.5
ZEAMX (Corn, Field) [3]; Rate 0.0315 kg/ha
  Postemergence herbicidal rating ZEAMX: 6.0
ZEAMX (Corn, Field) [3]; Rate 0.0630 kg/ha
  Postemergence herbicidal rating ZEAMX: 7.5
ORYSAT (Rice, Tebonnet); Rate 0.0158 kg/ha
  Postemergence herbicidal rating ORYSAT: 0.5
ORYSAT (Rice, Tebonnet); Rate 0.0315 kg/ha
  Postemergence herbicidal rating ORYSAT: 1.0
ORYSAT (Rice, Tebonnet); Rate 0.0630 kg/ha
  Postemergence herbicidal rating ORYSAT: 6.0
SETVI (Foxtail, Green) [4]; rate 0.0625 kg/ha
  Preemergence herbicidal rating SETVI: 0.0
SETVI (Foxtail, Green) [4]; rate 0.1250 kg/ha
  Preemergence herbicidal rating SETVI: 9.0
SETVI (Foxtail, Green) [4]; rate 0.2500 kg/ha
  Preemergence herbicidal rating SETVI: 9.0
[5]; rate 0.0313 kg/ha
  Herbicidal rating SAGPY: 0.0
[5]; rate 0.0625 kg/ha
  Herbicidal rating SAGPY: 0.0
[5]; rate 0.1250 kg/ha
  Herbicidal rating SAGPY: 3.0
[5]; rate 0.2500 kg/ha
  Herbicidal rating SAGPY: 9.0
CYPSE (Flatsedge) [6]; 0.0313 kg/ha
  Herbicidal rating CYPSE: 0.0
CYPSE (Flatsedge) [6]; 0.0625 kg/ha
  Herbicidal rating CYPSE: 0.0
CYPSE (Flatsedge) [6]; 0.1250 kg/ha
  Herbicidal rating CYPSE: 2.0
CYPSE (Flatsedge) [6]; 0.2500 kg/ha
  Herbicidal rating CYPSE: 4.0
SETVI (Foxtail, Green) [7]; Rate 0.0158 kg/ha
  Postemergence herbicidal rating SETVI: 3.0
SETVI (Foxtail, Green) [7]; Rate 0.0315 kg/ha
  Postemergence herbicidal rating SETVI: 9.0
SETVI (Foxtail, Green) [7]; Rate 0.0630 kg/ha
  Postemergence herbicidal rating SETVI: 9.0
CYPIR (Rice Flatsedge) [8]; 0.0313 kg/ha
  Herbicidal rating CYPIR: 0.0
CYPIR (Rice Flatsedge) [8]; 0.0625 kg/ha
  Herbicidal rating CYPIR: 5.0
CYPIR (Rice Flatsedge) [8]; 0.1250 kg/ha
  Herbicidal rating CYPIR: 5.0
CYPIR (Rice Flatsedge) [8]; 0.2500 kg/ha
  Herbicidal rating CYPIR: 9.0
[9]; 0.0313 kg/ha
  Herbicidal rating ECHORC: 4.0
[9]; 0.0625 kg/ha
  Herbicidal rating ECHORC: 6.0
[9]; 0.1250 kg/ha
  Herbicidal rating ECHORC: 7.0
[9]; 0.2500 kg/ha
  Herbicidal rating ECHORC: 9.0
ZEAMX (Corn, Field) [10]; rate 0.0625 kg/ha
  Preemergence herbicidal rating ZEAMX: 0.0
ZEAMX (Corn, Field) [10]; rate 0.1250 kg/ha
  Preemergence herbicidal rating ZEAMX: 3.0
ZEAMX (Corn, Field) [10]; rate 0.2500 kg/ha
  Preemergence herbicidal rating ZEAMX: 6.0
CYPIR (Rice Flatsedge) [11]; rate 0.0313 kg/ha
  Herbicidal rating CYPIR: 0.0
CYPIR (Rice Flatsedge) [11]; rate 0.0625 kg/ha
  Herbicidal rating CYPIR: 5.0
CYPIR (Rice Flatsedge) [11]; rate 0.1250 kg/ha
  Herbicidal rating CYPIR: 5.0
CYPIR (Rice Flatsedge) [11]; rate 0.2500 kg/ha
  Herbicidal rating CYPIR: 9.0
[12]; rate 0.0313 kg/ha
  Herbicidal rating ECHORC: 4.0
[12]; rate 0.0625 kg/ha
  Herbicidal rating ECHORC: 6.0
[12]; rate 0.1250 kg/ha
  Herbicidal rating ECHORC: 7.0
[12]; rate 0.2500 kg/ha
  Herbicidal rating ECHORC: 9.0
ECHCG (Barnyardgrass); rate 0.0625 kg/ha
  Preemergence herbicidal rating ECHCG: 0.0
ECHCG (Barnyardgrass); rate 0.1250 kg/ha
  Preemergence herbicidal rating ECHCG: 2.0
ECHCG (Barnyardgrass); rate 0.2500 kg/ha
  Preemergence herbicidal rating ECHCG: 6.0
